# Reference: PMC8002391, “A High-Throughput Screening System Based on Fluorescence-Activated Cell Sorting for the Directed Evolution of Chitinase A” (International Journal of Molecular Sciences, 2021)
# Molecular target: T1, ChiA (chitinase A) (Bacillus licheniformis, UniProt B7UB89)
# T1 construct: synthetic chiA gene in pET22b(+), in frame with pelB signal for periplasmic expression in E. coli BL21 (DE3); whole cells assayed
# Assay: fluorescence microtiter plate assay with whole E. coli cells expressing chiA (4MU release)
# Assay type: cell-based
# Conditions: 0.1 M sodium acetate pH 6.0; 25 µL cells + 25 µL 0.5 mg/mL 4MUTC; empty-vector cells as control
# T1 sequence (B7UB89 1-580): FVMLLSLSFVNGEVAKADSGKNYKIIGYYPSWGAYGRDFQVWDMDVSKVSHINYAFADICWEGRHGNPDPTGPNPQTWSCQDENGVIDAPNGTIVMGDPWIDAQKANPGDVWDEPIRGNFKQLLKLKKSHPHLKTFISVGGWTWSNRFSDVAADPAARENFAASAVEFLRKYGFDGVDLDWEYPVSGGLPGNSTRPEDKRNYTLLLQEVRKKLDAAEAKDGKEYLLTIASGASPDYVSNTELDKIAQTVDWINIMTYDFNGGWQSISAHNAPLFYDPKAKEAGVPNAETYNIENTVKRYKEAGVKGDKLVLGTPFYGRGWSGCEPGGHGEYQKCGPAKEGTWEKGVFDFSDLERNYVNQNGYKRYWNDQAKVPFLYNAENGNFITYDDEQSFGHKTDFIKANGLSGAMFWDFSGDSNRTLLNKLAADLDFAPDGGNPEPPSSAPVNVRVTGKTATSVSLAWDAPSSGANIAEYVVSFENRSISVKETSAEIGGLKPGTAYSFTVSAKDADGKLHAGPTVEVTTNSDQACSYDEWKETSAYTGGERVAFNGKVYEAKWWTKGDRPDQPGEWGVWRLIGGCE
structure (smiles),measurement,value
"CC(=O)N[C@H]1[C@H](Oc2ccc3c(C)cc(=O)oc3c2)O[C@H](CO)[C@@H](O[C@@H]2O[C@H](CO)[C@@H](O[C@@H]3O[C@H](CO)[C@@H](O)[C@H](O)[C@H]3NC(C)=O)[C@H](O)[C@H]2NC(C)=O)[C@@H]1O [4-methylumbelliferyl β-D-N,N′,N″-triacetyl chitotrioside]",fluorescence microtiter plate assay with whole E. coli cells expressing chiA (4M),comparing E. coli cells expressing chiA to those transformed with the empty vector
